# In patent publication US10189839B2, “Tricyclic imidazole compounds as inhibitors of tryptophan hydroxylase” (ACTELION PHARMACEUTICALS LTD, priority 2013, dated 2019):
# Target: T1, full length human TPH1 (Homo sapiens, UniProt P17752)
# T1 construct: To generate the enzyme, full length human TPH1 is cloned into the plasmid pET20b(+); made in house; host or cells: E. coli
# T1 sequence (P17752 1-444): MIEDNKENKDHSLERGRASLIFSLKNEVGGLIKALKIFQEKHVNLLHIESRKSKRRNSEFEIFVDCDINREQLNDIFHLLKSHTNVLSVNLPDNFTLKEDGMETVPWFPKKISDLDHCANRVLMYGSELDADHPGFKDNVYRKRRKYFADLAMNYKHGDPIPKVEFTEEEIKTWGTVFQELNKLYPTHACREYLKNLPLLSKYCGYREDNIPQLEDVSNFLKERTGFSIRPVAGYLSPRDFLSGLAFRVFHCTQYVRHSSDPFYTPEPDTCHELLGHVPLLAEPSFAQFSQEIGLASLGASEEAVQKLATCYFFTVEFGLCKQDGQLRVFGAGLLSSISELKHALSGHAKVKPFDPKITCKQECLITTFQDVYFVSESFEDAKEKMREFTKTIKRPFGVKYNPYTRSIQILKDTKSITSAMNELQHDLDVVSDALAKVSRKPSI
# Test: Biochemical in vitro assay using fluorescence readout (TPH1 enzyme activity)
# Text: Inhibitory activities on tryptophan hydroxylase 1 have been measured for each example compound using the following procedure:
# Biochemical In Vitro Assay Using Fluorescence Readout
# To generate the enzyme, full length human TPH1 is cloned into the plasmid pET20b(+) (Novagen) and expressed in E. coli. The bacterial cells are ruptured by sonication on ice and the lysate is cleared by centrifugation. The resulting protein in the pellet is re-extracted and TPH1 is purified from the obtained lysate by affinity chromatography using a pterin cosubstrate analog immobilized to the resin of the column. The protein is further purified by size exclusion chromatography to remove protein aggregates. The activity of TPH1 is determined by using a fluorescence assay. The enzyme activity assay is carried out at 15° C. with atmosphere oxygen for the duration of 60 minutes in a volume of 64 μl. The reaction is carried out in a 0.1M Tris-HCl buffer, adjusted to pH 7.6, containing 1 mM DTT, 0.2 mg/ml catalase, 100 μM (±)-6-methyl-5,6,7,8-tetrahydropterine dihydrochloride, 40 μM L-tryptophan, and 40-80 nM of TPH1. The reaction is started by bringing together L-tryptophan with all the other reaction substituents and stopped by quenching with perchloric acid (HClO4). The amount of 5-hydroxy-L-tryptophan produced during the enzymatic reaction is determined by fluorescence readout. Fluorescence, as determined at 540 nm when excited at 300 nm wavelength, increases proportionally to the 5-hydroxy-L-tryptophan formed. Compounds are prepared as 10 mM stock solution in DMSO, then diluted in 384-well plates using DMSO followed by a transfer of the dilutions into the assay plate. Fluorescence is measured for each well and the fluorescence at 540 nm wavelength is compared to the fluorescence of the vehicle in place of compound. Inhibitory activities of example compounds with respect to the TPH1 protein are determined by calculating the IC50 value (the concentration of compound needed to inhibit 50% of the enzyme activity). The calculated IC50 values may fluctuate depending on the daily biochemical assay performance. Fluctuations of this kind are known to those skilled in the art. In the case where IC50 values have been determined several times for the same compound, the mean is given.
# [1] = Table 1, mean where determined several times
SMILES,IC50 [1] [nM],IC50 (Table 2) [nM]
"O=C(NC1CC1)c1ccc(OCC(=O)N2CCc3nc4n(c3C2c2ccc(Cl)cc2F)CCCC4)c(C2CC2)n1 (stereo not drawn) [Example 1.1.22, 5-(2-(1-(4-chloro-2-fluorophenyl)-3,4,6,7,8,9-hexahydroimidazo[1,2-a:5,4-c′]dipyridin-2(1H)-yl)-2-oxoethoxy)-N,6-dicyclopropylpicolinamide]",10,–
"CN(CC(F)(F)F)c1ccc(OCC(=O)N2CCc3nc4n(c3C2c2ccc(Cl)cc2F)CCCC4)c(Cl)n1 (stereo not drawn) [Example 1.1.23, 1-(1-(4-chloro-2-fluorophenyl)-3,4,6,7,8,9-hexahydroimidazo[1,2-a:5,4-c′]dipyridin-2(1H)-yl)-2-((2-chloro-6-(methyl(2,2,2-trifluoroethyl)amino)pyridin-3-yl)oxy)ethan-1-one]",9,–
"COCCN(C)c1ccc(OCC(=O)N2CCc3nc4n(c3C2c2ccc(Cl)cc2F)CCCC4)c(Cl)n1 (stereo not drawn) [Example 1.1.24, 1-(1-(4-chloro-2-fluorophenyl)-3,4,6,7,8,9-hexahydroimidazo[1,2-a:5,4-c′]dipyridin-2(1H)-yl)-2-((2-chloro-6-((2-methoxyethyl)(methyl)amino)pyridin-3-yl)oxy)ethan-1-one]",62,–
"CN(C)C(=O)c1ccc(OC(C)(C)C(=O)N2CCc3nc4n(c3C2c2ccc(Cl)cc2F)CCCC4)c(Cl)n1 (stereo not drawn) [Example 1.1.25, 6-chloro-5-((1-(1-(4-chloro-2-fluorophenyl)-3,4,6,7,8,9-hexahydroimidazo[1,2-a:5,4-c′]dipyridin-2(1H)-yl)-2-methyl-1-oxopropan-2-yl)oxy)-N,N-dimethylpicolinamide]",146,–
"CN(C)C(=O)c1ccc(OC2(C(=O)N3CCc4nc5n(c4C3c3ccc(Cl)cc3F)CCCC5)CC2)c(Cl)n1 (stereo not drawn) [Example 1.1.26, 6-chloro-5-(1-(1-(4-chloro-2-fluorophenyl)-1,2,3,4,6,7,8,9-octahydroimidazo[1,2-a:5,4-c′]dipyridine-2-carbonyl)cyclopropoxy)-N,N-dimethylpicolinamide]",51,–
CN(CCO)c1ccc(OCC(=O)N2CCc3nc4n(c3C2c2ccc(Cl)cc2F)CCCC4)c(Cl)n1 (stereo not drawn) [Example 1.1.27],–,15
"Cc1ccc(C2c3c(nc4n3CCCC4)CCN2C(=O)COc2ccc(-c3ncco3)nc2Cl)c(F)c1 (stereo not drawn) [Example 1.2.2, 2-((2-chloro-6-(oxazol-2-yl)pyridin-3-yl)oxy)-1-(1-(2-fluoro-4-methylphenyl)-3,4,6,7,8,9-hexahydroimi-dazo[1,2-a:5,4-c′]dipyridin-2(1H)-yl)ethanone]",11,–
"Cc1ccc(C2c3c(nc4n3CCCC4)CCN2C(=O)COc2ccc(C(=O)N(C)C3CC3)nc2Cl)c(F)c1 (stereo not drawn) [Example 1.2.3, 6-chloro-N-cyclopropyl-5-(2-(1-(2-fluoro-4-methyl-phenyl)-3,4,6,7,8,9-hexahydroimidazo[1,2-a:5,4-c′]dipyridin-2(1H)-yl)-2-oxoethoxy)-N-methylpicolinamide]",22,–
"CCc1nc(C(=O)NC2CC2)ccc1OCC(=O)N1CCc2nc3n(c2C1c1ncc(C2CC2)cc1F)CCCC3 (stereo not drawn) [Example 1.3.2, N-cyclopropyl-5-(2-(1-(5-cyclopropyl-3-fluoropyridin-2-yl)-3,4,6,7,8,9-hexahydroimidazo[1,2-a:5,4-c′]dipyridin-2(1H)-yl)-2-oxoethoxy)-6-ethylpicolinamide]",7,–
"Cc1cnc(C2c3c(nc4n3CCCC4)CCN2C(=O)COc2ccc(-c3ncco3)nc2Cl)c(F)c1 (stereo not drawn) [Example 1.6.2, 2-((2-chloro-6-(oxazol-2-yl)pyridin-3-yl)oxy)-1-(1-(3-fluoro-5-methylpyridin-2-yl)-3,4,6,7,8,9-hexahydroimidazo[1,2-a:5,4-c′]dipyridin-2(1H)-yl)ethanone]",41,–
"Cc1cnc(C2c3c(nc4n3CCCC4)CCN2C(=O)COc2ccc(C(=O)N(C)C3CC3)nc2Cl)c(F)c1 (stereo not drawn) [Example 1.6.3, 6-chloro-N-cyclopropyl-5-(2-(1-(3-fluoro-5-methyl-pyridin-2-yl)-3,4,6,7,8,9-hexahydroimidazo[1,2-a:5,4-c′]dipyridin-2(1H)-yl)-2-oxoethoxy)-N-methyl-picolinamide]",114,–

# The next lines start with the values.
IC50 [1] [nM],IC50 (Table 2) [nM],SMILES
90,–,"CS(=O)(=O)c1ccc(OCC(=O)N2CCc3nc4n(c3C2c2ccc(Cl)cc2F)CCCC4)c(Cl)n1 (stereo not drawn) [Example 1.1.28, 1-(1-(4-chloro-2-fluorophenyl)-3,4,6,7,8,9-hexahydroimidazo[1,2-a:5,4-c′]dipyridin-2(1H)-yl)-2-((2-chloro-6-(methylsulfonyl)pyridin-3-yl)oxy)ethan-1-one]"
129,–,"CN(C)S(=O)(=O)c1ccc(OCC(=O)N2CCc3nc4n(c3C2c2ccc(Cl)cc2F)CCCC4)c(Cl)n1 (stereo not drawn) [Example 1.1.29, 6-chloro-5-(2-(1-(4-chloro-2-fluorophenyl)-3,4,6,7,8,9-hexahydroimidazo[1,2-a:5,4-c′]dipyridin-2(1H)-yl)-2-oxoethoxy)-N,N-dimethylpyridine-2-sulfonamide]"
41,–,"Cc1ccc(C2c3c(nc4n3CCCC4)CCN2C(=O)COc2ccc(NS(C)(=O)=O)nc2Cl)c(F)c1 (stereo not drawn) [Example 1.2.1, N-(6-chloro-5-(2-(1-(2-fluoro-4-methylphenyl)-3,4,6,7,8,9-hexahydroimidazo[1,2-a:5,4-c′]dipyridin-2(1H)-yl)-2-oxoethoxy)pyridin-2-yl)methanesulfonamide]"
63,–,"CS(=O)(=O)Nc1ccc(OCC(=O)N2CCc3nc4n(c3C2c2ncc(C3CC3)cc2F)CCCC4)c(Cl)n1 (stereo not drawn) [Example 1.3.1, N-(6-chloro-5-(2-(1-(5-cyclopropyl-3-fluoropyridin-2-yl)-3,4,6,7,8,9-hexahydroimidazo[1,2-a:5,4-c′]dipyridin-2(1H)-yl)-2-oxoethoxy)pyridin-2-yl)methanesulfonamide]"
7,–,"CCc1nc(C(=O)NC2CC2)ccc1OCC(=O)N1CCc2nc3n(c2[C@@H]1c1ncc(C2CC2)cc1F)CCCC3 [Example 1.3.3, (R)-N-cyclopropyl-5-(2-(1-(5-cyclopropyl-3-fluoropyridin-2-yl)-3,4,6,7,8,9-hexahydroimidazo[1,2-a:5,4-c′]dipyridin-2(1H)-yl)-2-oxoethoxy)-6-ethylpicolinamide]"
55,–,"CN(C)C(=O)c1ccc(OCC(=O)N2CCc3nc4n(c3C2c2sc(C(=O)N(C)C)cc2F)CCCC4)c(Cl)n1 (stereo not drawn) [Example 1.4.1, 6-chloro-5-(2-(1-(5-(dimethylcarbamoyl)-3-fluoro-thiophen-2-yl)-3,4,6,7,8,9-hexahydroimidazo[1,2-a:5,4-c′]dipyridin-2(1H)-yl)-2-oxoethoxy)-N,N-dimethyl-picolinamide]"
38,–,"CCc1nc(NS(C)(=O)=O)ccc1OCC(=O)N1CCc2nc3n(c2C1c1sc(C(=O)N(C)C)cc1F)CCCC3 (stereo not drawn) [Example 1.4.2, 5-(2-(2-((2-ethyl-6-(methylsulfonamido)pyridin-3-yl)oxy)acetyl)-1,2,3,4,6,7,8,9-octahydroimidazo[1,2-a:5,4-c′]dipyridin-1-yl)-4-fluoro-N,N-dimethylthiophene-2-carboxamide]"
558,–,"CCOC(=O)c1csc(C2c3c(nc4n3CCCC4)CCN2C(=O)COc2ccc(NS(C)(=O)=O)nc2Cl)n1 (stereo not drawn) [Example 1.5.1, Ethyl 2-(2-(2-((2-chloro-6-(methylsulfonamido)pyridin-3-yl)oxy)acetyl)-1,2,3,4,6,7,8,9-octahydroimidazo[1,2-a:5,4-c′]dipyridin-1-yl)thiazole-4-carboxylate]"
58,–,"Cc1cnc(C2c3c(nc4n3CCCC4)CCN2C(=O)COc2ccc(NS(C)(=O)=O)nc2Cl)c(F)c1 (stereo not drawn) [Example 1.6.1, N-(6-chloro-5-(2-(1-(3-fluoro-5-methylpyridin-2-yl)-3,4,6,7,8,9-hexahydroimidazo[1,2-a:5,4-c′]dipyridin-2(1H)-yl)-2-oxoethoxy)pyridin-2-yl)methanesulfonamide]"
33,–,"Cc1cnc(C2c3c(nc4n3CCCC4)CCN2C(=O)COc2ccc(C(=O)N(C)C)nc2Cl)c(F)c1 (stereo not drawn) [Example 1.6.4, 6-chloro-5-(2-(1-(3-fluoro-5-methylpyridin-2-yl)-3,4,6,7,8,9-hexahydroimidazo[1,2-a:5,4-c′]dipyridin-2(1H)-yl)-2-oxoethoxy)-N,N-dimethylpicolinamide]"
